Laboratory results published in US20040023945A1, “CYCLIC AMP-SPECIFIC PHOSPHODIESTERASE INHIBITORS” (ICOS Corporation, priority 1999, published 2004).
Where two headings read alike, the source gives them in different places. Values belong to the compound of their own block, whether it stands above or below them.

Experiments:
[1] = test system: human peripheral blood lymphocytes; assay: Lipopolysaccharide-stimulated TNFα release from human peripheral blood lymphocytes; type: cell-based; conditions: Homo sapiens, Lymphocyte
Method: The compounds of structural formula (II) also were tested for an ability to reduce TNFα secretion in human peripheral blood lymphocytes. The ability to reduce TNFα secretion is related to the EC50 values (i.e., the effective concentration of the compound capable of inhibiting 50% of the total TNFα).
To assess the ability of a compound to reduce TNFα secretion in human peripheral blood lymphocytes (PBL), the following tests were performed.
Heparinized blood (approximately 30 mL) drawn from human volunteers was mixed 1:1 with Dulbecco's modified phosphate-buffered saline. This mixture was mixed 1:1 with HISTOPAQUE® and centrifuged at 1,500 rpm at room temperature without braking in the swinging bucket of a Beckman model TJ6 centrifuge. Erythrocytes were centrifuged to the bottom of the tubes, and serum remained at the surface of the tubes. A layer containing lymphocytes sedimented between the serum and HISTOPAQUE® layers, and was removed by aspiration to a fresh tube. The cells were quantified and adjusted to 3×10^6 cells/mL and a 100 μL aliquot is placed into the wells of a 96 well plate. Test compounds and RPMI media (Gibco/BRL Life Sciences) are added to each of the wells 15 minutes prior to addition of bacterial LPS ([…]). The mixture was allowed to incubate for 20 hours at 37° C. in a humidified chamber. The cells then were separated by centrifuging at 800 rpm for 5 minutes at room temperature. An aliquot of 180 μL of supernatant was transferred to a new plate for determination of TNFα concentration. TNFα protein in the cell supernatant fluids was measured using a commercially available enzyme-linked immunosorbent assay (ELISA) (CYTOSCREEN® Immunoassay Kit from Biosource International).
The cell-based assay provided the following results for various pyrrolidine compounds of the present invention. The EC50 values (i.e., effective concentration of the compound capable of inhibiting 50% of the total TNFα) illustrate the ability of the present compounds to inhibit LPS-stimulated TNFα release from human PBL.

human recombinant PDE4B = target: T1, human recombinant PDE4B (Homo sapiens, UniProt Q07343); assay: Inhibition of human recombinant PDE4B; type: biochemical; conditions: read-out: PDE4B IC50
T1 construct: made in house; host or cells: Saccharomyces cerevisiae strain YI23 harboring HDUN2.32

recombinant human PDE4 [2] = conditions: background, prior art; read-out: reported IC50 with respect to recombinant human PDE4; cited from earlier work
[3] = Mouse locomotor activity assay (decrease in spontaneous mobility); conditions: female, Balb/c, in vivo
Method: The purpose of this study was to determine the efficacy of PDE4 inhibitors in vivo in an LPS mouse model together with a determination with respect to central nervous system (CNS) side-effects manifested by a decrease in spontaneous mobility.
The test animals were female Balb/c mice, having an average weight of about 20 g. The PDE4 inhibitors, formulated in 30% Cremophor® EL, were administered via intraperitoneal (i.p.) injections at doses of 0.1, 1.0, 10.0, and 100 mg/kg. Individual dose volumes (about 150 μL) were adjusted based on the body weights measured. One hour later, 5 mg/kg LPS in a final volume of 200 μL was injected via the tail vein to each animal. Ninety minutes following the LPS treatment, the animals were bled and serum samples were collected before being stored at −70° C. until assayed.
Movement of the X-Y plane, or rearing up on the hind legs, was quantified by counting the number of “light-beam” crosses per unit of time. A decrease in the number of activity events is directly proportional to the mobility or immobilization of the animal. The quantitative scoring correlated well with the subjective measurements described above.

[4] = test system: serum TNFα levels in LPS-injected mice; assay: Inhibition of serum TNFα levels in LPS-injected mice (Mouse/TNFα ED50); type: in vivo; conditions: Mus musculus
Method: In order to assess the ability of a compound to reduce serum TNFα levels in mammals, the following protocol was employed. […] Accordingly, in vivo efficacy of a PDE4 reducing compound was shown by dosing with compound and measuring reduction of serum TNFα levels in LPS-injected mice. Female C3H mice, 20-25 gm body weight, were fasted overnight and dosed intraperitoneally with test compound in appropriate vehicle 60 minutes before LPS injection. Five μg of LPS was then injected intraperitoneally into the mice. Ninety minutes after LPS injection, mice were bled from the heart. Blood was allowed to clot overnight at 4° C. Samples were centrifuged for 10 minutes in a microcentrifuge and the serum removed and stored at −20° C. until analysis. Serum levels of TNFα were subsequently measured using a commercially available ELISA kit (Genzyme) following the protocol enclosed in the kit. The percent of inhibition of serum TNFα levels caused by the compound was determined relative to serum TNFα levels in control mice receiving vehicle alone. […]

[5] = A. Robichaud et al., Neuropharmacology 1999; cited from earlier work
recombinant human PDE4 [6] = assay: Inhibition of recombinant human PDE4 (cAMP hydrolysis); conditions: read-out: PDE4 IC50
ferret = assay: Emetic modeling in the ferret following oral and intravenous dosing; type: in vivo, Mustela putorius furo
Method: This study was conducted to investigate the emetogenic properties of PDE4 inhibitors in vivo. The ferret previously has been established as a valuable tool for assessing emesis following exposure to test compounds. […] Therefore, lack of and/or decrease in emetic potential of test compounds in ferrets predicts a favorable nonemetic effect in humans. Emesis is a complex physiological response to noxious agents that can be intiated peripherally or centrally.
The test animals were adult, castrated, and descented male ferrets (species=Mustela putorius furo, Strain=Sable) ranging in weight from about 1 to 1.5 kg. The tests were performed in quadruplicate on animals that were naive to PDE4 inhibitors. The PDE4 inhibitors were formulated in 10% Polyoxyl-35 castor oil (CREMOPHOR® EL, available from BASF Corporation, Parsippany, N.J.) in phosphate buffered saline (PBS), and were administered via i.v. injections into an indwelling catheter surgically positioned in the right external jugular vein at a rate of 0.66 mL per kg body weight. PDE4 inhibitors for oral consumption were formulated in 30% CREMOPHOR® EL in PBS, and administered by intubating animals with a 16-gauge feeding needle into the stomach. The animals received the PDE4 inhibitors in a volume of 1.33 mL per kg body weight.
All animals were fasted for 8 to 12 hours prior to administration of PDE4 inhibitors. Following administration of a PDE4 inhibitor, emetic and behavioral responses were quantified for three hours post dosing. The total number of emetic responses and vomiting episodes were quantified during the observation interval. In addition, latency time to first emetic episode, duration of emesis episodes, and gross behavioral changes including ataxia, profuse and viscous salivation, mouth clawing, hyperventilation, backward walking, flattened body posture, hyperactivity, lip licking, and general appearance were recorded.
For comparative purposes, the emetogenic effect of Samples 66 and 69 were tested intravenously at 1.0, 2.5, 5.0, and 10 mg/kg and orally at 2.5, 10, 17, and 25 mg/kg.

mouse = assay: Subjective assessment of mouse immobility (CNS side effects); type: in vivo
[7] = intraperitoneal, read-out: Mouse Inhibition of Spontaneous Mobility ED50
[8] = read-out: Mouse LPS Challenge ED50
[9] = LPS-stimulated TNFα release from human PBL, read-out: PBL/TNFα EC50
[10] = ip, read-out: ED50, effective dose that decreases spontaneous mobility 50% of control

T1 sequence (Q07343 whole entry): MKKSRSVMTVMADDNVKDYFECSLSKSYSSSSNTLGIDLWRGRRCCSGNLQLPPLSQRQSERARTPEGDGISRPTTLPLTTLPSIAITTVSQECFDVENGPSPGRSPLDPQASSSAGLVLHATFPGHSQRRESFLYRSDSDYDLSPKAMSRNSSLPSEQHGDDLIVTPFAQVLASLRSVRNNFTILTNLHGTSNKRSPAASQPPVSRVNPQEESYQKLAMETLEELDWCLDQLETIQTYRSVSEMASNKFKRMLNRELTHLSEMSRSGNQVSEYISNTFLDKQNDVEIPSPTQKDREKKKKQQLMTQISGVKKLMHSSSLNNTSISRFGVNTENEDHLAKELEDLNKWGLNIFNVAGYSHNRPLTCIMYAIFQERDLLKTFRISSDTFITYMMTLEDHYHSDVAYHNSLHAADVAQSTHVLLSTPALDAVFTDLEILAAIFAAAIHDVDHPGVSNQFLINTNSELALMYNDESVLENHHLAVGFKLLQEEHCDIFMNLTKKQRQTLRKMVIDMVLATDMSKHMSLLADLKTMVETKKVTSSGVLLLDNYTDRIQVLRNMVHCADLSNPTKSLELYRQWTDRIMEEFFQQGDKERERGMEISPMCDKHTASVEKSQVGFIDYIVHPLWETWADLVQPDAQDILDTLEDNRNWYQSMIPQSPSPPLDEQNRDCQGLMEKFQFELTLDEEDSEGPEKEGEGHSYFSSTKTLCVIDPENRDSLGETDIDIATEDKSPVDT

- EC50 ([1]; read-out: Cell based EC50): 30 nM
- IC50 (human recombinant PDE4B): 20 nM
Structure (SMILES): COc1ccc([C@@H]2CN(C(=O)[C@H](N)CO)C[C@@]2(C)[C@@H](C)O)cc1OCC1CC1.Cl [Example 109, hydrochloride]

Structure (SMILES): COC(=O)N1CC(c2ccc(OC)c(OC3CCCC3)c2)C(C)(C(C)=O)C1 (centres unmarked) [formula (I)]
- IC50 (recombinant human PDE4 [2]): ~2 nM

- EC50 ([1]; read-out: Cell based EC50): 30 nM
- ED50 [3, 7]: 100 mg/kg
- IC50 (human recombinant PDE4B): 7 nM
Structure (SMILES): COc1ccc([C@@H]2CN(C(=O)C(O)c3ccccc3)C[C@@]2(C)[C@@H](C)O)cc1OCC1CC1 (stereo partly drawn) [Example 195, 1-{3-((1R)-1-Hydroxyethyl)(3S,4S)-4-[3-(cyclopropyl-methoxy)-4-methoxyphenyl]-3-methylpyrrolidinyl}-2-hydroxy-2-phenylethan-1-one]
- ED50 [4, 8]: 9 mg/kg

- EC50 ([1]; read-out: Cell based EC50): 6 nM
- ED50 [3, 7]: 100 mg/kg
- IC50 (human recombinant PDE4B): 15 nM
Structure (SMILES): COc1ccc([C@@H]2CN(C(=O)[C@@H](O)Cc3ccccc3)C[C@@]2(C)[C@@H](C)O)cc1OCC#Cc1ccccc1 [Example 268, (S)-2-Hydroxy-1-{(3S,4S)-3-((R)-1-hydroxyethyl)-4-[4-methoxy-3-(3-phenylprop-2-ynyloxy)phenyl]-3-methylpyrrolidin-1-yl}-3-phenylpropan-1-one]
- ED50 [4, 8]: 5 mg/kg

Structure (SMILES): COc1ccc([C@@H]2CNC(=O)C2)cc1OC1CCCC1 [R-rolipram]
- emetic potency relative to the (+)-enantiomer (S-rolipram) [5]: about ten-fold

- EC50 [1, 9]: 603 nM
- ED50 [3, 10]: > 50 mg/kg
Structure (SMILES): COc1ccc([C@@H]2CN(C(=O)[C@H](C)O)C[C@@]2(C)[C@@H](C)O)cc1OC1CCCC1 [Example 67, 1-[3-((1R)-1-Hydroxyethyl)(3S,4S)-4-(3-cyclopentyloxy-4-methoxyphenyl)-3-methylpyrrolidinyl](2S)-2-hydroxypropan-1-one]

Structure (SMILES): COc1ccc(C2CNC(=O)C2)cc1OC1CCCC1 (centres unmarked) [Rolipram, rolipram]
- IC50 (recombinant human PDE4 [2]): ~200 nM

Structure (SMILES): COC(=O)N1C[C@H](c2ccc(OC)c(OC3CCCC3)c2)[C@@](C)([C@H](C)O)C1 [(A)]
- EC50 [1, 9]: 57 nM
- IC50 (recombinant human PDE4 [6]; human recombinant PDE4): 13.3 nM
- IC50 (recombinant human PDE4 [6]; stereoisomer comparison table): 13.3 nM
- Number of Emetic Events: Retches (ferret; intravenous 1.0 mg/kg): 0
- Number of Emetic Events: Total (ferret; intravenous 1.0 mg/kg): 0
- Number of Emetic Events: Vomits (ferret; intravenous 1.0 mg/kg): 0
- Responders (ferret; intravenous 1.0 mg/kg): 0/4
- Number of Emetic Events: Retches (ferret; intravenous 2.5 mg/kg): 3
- Number of Emetic Events: Total (ferret; intravenous 2.5 mg/kg): 3
- Number of Emetic Events: Vomits (ferret; intravenous 2.5 mg/kg): 0
- Responders (ferret; intravenous 2.5 mg/kg): 1/4
- Number of Emetic Events: Retches (ferret; intravenous 5.0 mg/kg): 300
- Number of Emetic Events: Total (ferret; intravenous 5.0 mg/kg): 300
- Number of Emetic Events: Vomits (ferret; intravenous 5.0 mg/kg): 0
- Responders (ferret; intravenous 5.0 mg/kg): 2/2
- outcome after intravenous dosing (ferret; intravenous 5 mg/kg body weight): one of the tested animals died almost immediately after dosing
- Number of Emetic Events: Retches (ferret; oral 2.5 mg/kg): 0
- Number of Emetic Events: Total (ferret; oral 2.5 mg/kg): 0
- Number of Emetic Events: Vomits (ferret; oral 2.5 mg/kg): 0
- Responders (ferret; oral 2.5 mg/kg): 0/4
- Number of Emetic Events: Retches (ferret; oral 10.0 mg/kg): 27
- Number of Emetic Events: Total (ferret; oral 10.0 mg/kg): 32
- Number of Emetic Events: Vomits (ferret; oral 10.0 mg/kg): 5
- Responders (ferret; oral 10.0 mg/kg): 3/4
- Number of Emetic Events: Retches (ferret; oral 17.0 mg/kg): 51
- Number of Emetic Events: Total (ferret; oral 17.0 mg/kg): 58
- Number of Emetic Events: Vomits (ferret; oral 17.0 mg/kg): 7
- Responders (ferret; oral 17.0 mg/kg): 3/4
- Number of Emetic Events: Retches (ferret; oral 25.0 mg/kg): 88
- Number of Emetic Events: Total (ferret; oral 25.0 mg/kg): 114
- Number of Emetic Events: Vomits (ferret; oral 25.0 mg/kg): 26
- Responders (ferret; oral 25.0 mg/kg): 4/4
- emetic response, comparison of compounds (ferret; oral or intravenous): much stronger emetic response than compound (C)
- mouse mobility assessment (footnote statement) (mouse; i.p. 1, 10 and 100 mg/kg, 60 minutes time frame): mice were affected at all doses
- outcome at the highest dose (mouse; mouse, i.p., highest dose (100 mg/kg)): mice became moribund and died within 10 minutes of treatment
- CNS Side Effects (mouse; subjective assessment of mouse immobility, i.p. 1, 10 and 100 mg/kg, 60 minutes): Severe
- ED50 ([4]; stereoisomer comparison table, read-out: Mouse/TNFα ED50): 7 mg/kg

- EC50 [1, 9]: 35 nM
- ED50 [3, 10]: 83 mg/kg
Structure (SMILES): COc1ccc([C@@H]2CN(c3ccccn3)C[C@@]2(C)[C@@H](C)O)cc1OC1Cc2ccccc2C1 [Example 31, (1R)-1-[(3S,4S)-4-(3-Indan-2-yloxy-4-methoxyphenyl)-3-methyl-1-(2-pyridyl)pyrrolidin-3-yl]ethan-1-ol]
- ED50 ([4]; mouse, i.p., LPS challenge, read-out: Mouse/TNFα ED50): 3 mg/kg

- ED50 [3, 7]: 100 mg/kg
Structure (SMILES): COc1ccc([C@@H]2CN(C(=O)[C@H](N)CO)C[C@@]2(C)[C@@H](C)O)cc1OCC1CC1.Cl [Example 109]
- ED50 [4, 8]: 5 mg/kg

- EC50 ([1]; read-out: Cell based EC50): 10 nM
- ED50 [3, 7]: < 100 mg/kg
- IC50 (human recombinant PDE4B): 3 nM
Structure (SMILES): COc1ccc([C@@H]2CN(C(=O)[C@@H](O)CO)C[C@@]2(C)[C@@H](C)O)cc1OCC#Cc1ccccc1 [Example 264, (S)-2,3-Dihydroxy-1-{(3S,4S)-3-((R)-1-hydroxyethyl)-4-[4-methoxy-3-(3-phenylprop-2-ynyloxy)phenyl]-3-methylpyrrolidin-1-yl}propan-1-one]
- ED50 [4, 8]: 1 mg/kg

- EC50 ([1]; read-out: Cell based EC50): 30 nM
- ED50 [3, 7]: 100 mg/kg
- IC50 (human recombinant PDE4B): 11 nM
Structure (SMILES): CCCC(O)C(=O)N1C[C@@H](c2ccc(OC)c(OCC3CC3)c2)[C@](C)([C@@H](C)O)C1 (stereo partly drawn) [Example 101, 1-{(3S,4S)-3-((1R)-1-Hydroxyethyl)-4-[3-(cyclopropylmethoxy)-4-methoxyphenyl]-3-methylpyrrolidinyl)-2-hydroxypentan-1-one]
- ED50 [4, 8]: 3 mg/kg
